≈ marks a conversion by molar mass, not a printed value. Where “and” joins values, the source holds several entries; their conditions need not be identical. Equal values may be shown once. Read-outs that look alike come from different tables or passages of the source.
Legend:
Type in all cases: cell-based
Mycobacterium fortuitum = experiment: Anti-mycobacterial MIC; settings: for MIC: Mycolicibacterium fortuitum
Mycobacterium marinum = experiment: Anti-mycobacterial MIC; settings: read-out: Minimum inhibitory concentration (MIC), observed
Mycobacterium bovis = experiment: microbe, parasite or virus in culture; settings: for MIC lower than that of the standard reference (INH): Mycobacterium bovis, MIC vs INH; for MIC: Mycobacterium tuberculosis variant bovis, read-out: Minimum inhibitory concentration (MIC)
Klebsiella pneumonia = experiment: Antibacterial MIC, aerobic bacteria, standard technique; settings: Klebsiella pneumoniae, read-out: Minimum inhibitory concentration (MIC)
Source text: (§1) Antibacterial properties were investigated for the synthesized compounds against a variety of Gram-positive (Staphylococcus aureus, Enterococcus faecalis) and Gram-negative (Klebsiella pneumonia, Proteus vulgaris, Pseudomonas aeruginosa) bacteria utilizing the standard technique.

Proteus vulgaris = experiment: as above; settings: read-out: Minimum inhibitory concentration (MIC)
Source text: as §1

Enterococcus faecalis = experiment: as above; settings: read-out: Minimum inhibitory concentration (MIC)
Source text: as §1

Staphylococcus aureus = experiment: as above; settings: read-out: Minimum inhibitory concentration (MIC)
Source text: as §1

[1] = read-out: Minimum inhibitory concentration (MIC)
[2] = read-out: Minimum inhibitory concentration (MIC), observed

Structure (SMILES)	MIC (Mycobacterium fortuitum; [1]) [mg/mL]	MIC (Mycobacterium marinum) [mM]	further results
CC(C)[C@H](NC(=O)c1cnccn1)C(=O)O	> 20		
CSCC[C@H](NC(=O)c1cnccn1)C(=O)O	> 20		
O=C(N[C@@H](Cc1ccccc1)C(=O)O)c1cnccn1	> 20		
O=C(NC(Cc1ccccc1)C(=O)O)c1cnccn1 (stereo not shown)	> 20		
O=C(N[C@@H](Cc1c[nH]c2ccccc12)C(=O)O)c1cnccn1	> 20		
O=C(NNC(=O)C(Cc1ccccc1)NC(=O)c1cnccn1)c1ccncc1 (stereo not shown)	10		
O=C(NNC(=O)C(Cc1ccccc1)NC(=O)c1cnccn1)c1ccncc1 (racemic) [PZA-DL-Phe-INH]			Potency relative to the standard reference (INH) (Mycobacterium fortuitum; MIC vs INH): about 5.6 folds
NNC(=O)c1ccncc1 [INH, isoniazide, reference compound]		72.9 (≈ 10 mg/mL)	
O=C(NNC(=O)c1ccncc1)c1ccncc1 [Iso-INH]		82.6 (≈ 20 mg/mL)	MIC (Mycobacterium fortuitum; [2]): 82.6 mM; MIC lower than that of the standard reference (INH) (Mycobacterium bovis): about 1.8 folds
NC(=O)c1cnccn1 [PZA, Pyrazinamide, reference compound]		81.2 (≈ 10 mg/mL)	MIC (Mycobacterium fortuitum; [2]): 81.2 mM
O=C(NNC(=O)c1cnccn1)c1ccncc1 [PZA-INH]		41.1 (≈ 10 mg/mL)	MIC (Mycobacterium fortuitum; [2]): 41.1 mM; MIC lower than that of the standard reference (INH) (Mycobacterium bovis): about 1.8 folds
CCC(C)C(NC(=O)c1cnccn1)C(=O)NNC(=O)c1ccncc1 (stereo not shown) [PZA-Ile-INH]		56.1 (≈ 20 mg/mL)	MIC (Mycobacterium fortuitum; [2]): 56.1 mM
CC(C)C[C@H](NC(=O)c1cnccn1)C(=O)NNC(=O)c1ccncc1 [PZA-Leu-INH]		56.1 (≈ 20 mg/mL)	MIC (Mycobacterium fortuitum; [2]): 56.1 mM
CC(C)C[C@H](NC(=O)c1cnccn1)C(=O)O [PZA-Leu-OH]		84.3 (≈ 20 mg/mL)	MIC (Mycobacterium fortuitum; [2]): 84.3 mM
CSCC[C@H](NC(=O)c1cnccn1)C(=O)NNC(=O)c1ccncc1 [PZA-Met-INH]		26.7 (≈ 10 mg/mL)	MIC (Mycobacterium fortuitum; [2]): 53.4 mM
O=C(NNC(=O)[C@H](Cc1ccccc1)NC(=O)c1cnccn1)c1ccncc1 [PZA-Phe-INH]		51.2 (≈ 20 mg/mL)	MIC (Mycobacterium fortuitum; [2]): 51.2 mM
O=C(NNC(=O)[C@H](Cc1c[nH]c2ccccc12)NC(=O)c1cnccn1)c1ccncc1 [PZA-Trp-INH]		46.6 (≈ 20 mg/mL)	MIC (Mycobacterium fortuitum; [2]): 46.6 mM

Structure (SMILES)	MIC (Mycobacterium fortuitum; [1]) [mg/mL]	MIC (Mycobacterium marinum) [mM]	further results
CC(C)[C@H](NC(=O)c1cnccn1)C(=O)NNC(=O)c1ccncc1 [PZA-Val-INH]		58.4 (≈ 20 mg/mL)	MIC (Mycobacterium fortuitum; [2]): 58.4 mM
CCC(C)C(NC(=O)c1cnccn1)C(=O)O (stereo not shown) [drawing 30]			MIC (Klebsiella pneumonia): 0.008 mg/mL (≈ 33.7 µM); MIC (Proteus vulgaris): 0.06 µg/mL (≈ 0.253 µM); MIC (Enterococcus faecalis): 0.03 µg/mL
CC(C)[C@H](NC(=O)c1cnccn1)C(=O)NNC(=O)c1ccncc1 [drawing 36]			MIC (Enterococcus faecalis): 0.00035 mM
CCC(C)C(NC(=O)c1cnccn1)C(=O)NNC(=O)c1ccncc1 (stereo not shown) [drawing 37]			MIC (Klebsiella pneumonia): 0.008 mg/mL (≈ 22.4 µM); MIC (Proteus vulgaris): 0.06 µg/mL (≈ 0.168 µM); MIC (Enterococcus faecalis): 0.03 µg/mL and 0.08 µM
O=C(NNC(=O)[C@H](Cc1c[nH]c2ccccc12)NC(=O)c1cnccn1)c1ccncc1 [drawing 41]			MIC (Staphylococcus aureus): 3.73 mM (≈ 1.6 mg/mL)
NC(=O)c1cnccn1 [drawing 44]	10		
NNC(=O)c1ccncc1 [drawing 45]	20		
CC(C)C[C@H](NC(=O)c1cnccn1)C(=O)O [drawing 46]	20		
CCC(C)C(NC(=O)c1cnccn1)C(=O)O (stereo not shown) [drawing 48]	> 20		MIC (Mycobacterium bovis): > 20 mg/mL
CC(C)C[C@H](NC(=O)c1cnccn1)C(=O)NNC(=O)c1ccncc1 [drawing 53]	20		
CC(C)[C@H](NC(=O)c1cnccn1)C(=O)NNC(=O)c1ccncc1 [drawing 54]	20		
CCC(C)C(NC(=O)c1cnccn1)C(=O)NNC(=O)c1ccncc1 (stereo not shown) [drawing 55]	20		MIC (Mycobacterium bovis): > 20 mg/mL
CSCC[C@H](NC(=O)c1cnccn1)C(=O)NNC(=O)c1ccncc1 [drawing 56]	20		
O=C(NNC(=O)[C@H](Cc1ccccc1)NC(=O)c1cnccn1)c1ccncc1 [drawing 57]	20		
O=C(NNC(=O)[C@H](Cc1c[nH]c2ccccc12)NC(=O)c1cnccn1)c1ccncc1 [drawing 59]	20		
O=C(NNC(=O)c1cnccn1)c1ccncc1 [drawing 60]	10		
O=C(NNC(=O)c1ccncc1)c1ccncc1 [drawing 61]	20		

Reference: patent publication US11584725B2, “Pyrazinoic acid conjugates and hybrid conjugates” (Augusta University Research Institute, Inc., priority 2018, dated 2023)
